# Source: patent US11331364B2, “Use for JNK inhibitor molecules for treatment of various diseases” (Xigen Inflammation Ltd., priority 2014, dated 2022)
# Square brackets hold non-standard residues; d marks the D form. Peptide text beside a SMILES is read from it.
# Tests used:
# human whole blood [1] = assay: LPS-induced IL-6 release in human whole blood; format: cell-based; conditions: 1, 3, 10 μM 1 h before LPS (0.02 ng/mL), 4 hours
# Method: FIG. 18 JNK inhibition and IL-6 release in human whole blood. The JNK inhibitor with SEQ ID NO: 172 was added at three different concentrations, namely 1, 3 and 10 μM 1 h before whole blood stimulation with LPS (0.02 ng/mL) for 4 hours.
# Whole blood is collected from anesthetized rat or human healthy volunteers using a venipuncture connected to a pre-labeled vacuum tube containing sodium citrate. Tubes are gently mixed by inversion 7-8 times; and are then kept at RT until stimulation. JNK inhibitor of SEQ ID NO: 172 is prepared 6 times concentrated in PBS, and 30 μl/well of mix is added into 96-well plate. Whole blood is diluted by 1:2 in PBS and 120 μl of diluted blood is added in each well where either PBS alone or JNK inhibitor of SEQ ID NO: 172 has been previously added. Whole blood is incubated at 37° C.; 85 rpm (Stuart Orbital incubator SI500) for 60 min. Activators (LPS) are the prepared, 30 μl/well of LPS, 6 times concentrated. After 60 min incubation, LPS is added to the blood, blood is mixed by pipetting up and down, and then kept for 4 h under agitation (85 rpm), at 37° C. […] Cytokine (IL-6, IL-2, IFNγ and TNFα) were then measured using standard Elisa kits (e.g. from R&D Systems: DuoSet Elisas; or from BD Biosciences: BD Opteia Set Elisa). Results are expressed as pg/ml of supernatant of the measured cytokine.
# human whole blood [2] = assay: PHA-L-induced cytokine release in human whole blood, 3 days; format: cell-based; conditions: 1, 3, 10 μM, PHA-L 5 μg/mL
# Method: FIG. 22 JNK inhibition and TNF-α release in human whole blood. The JNK inhibitor with SEQ ID NO: 172 was added at three different concentrations, namely 1, 3 and 10 μM 1 h before whole blood stimulation with PHA-L (5 μg/mL) for 3 days.
# FIG. 23 JNK inhibition and IL-2 release in human whole blood. The JNK inhibitor with SEQ ID NO: 172 was added at three different concentrations, namely 1, 3 and 10 μM 1 h before whole blood stimulation with PHA-L (5 μg/mL) for 3 days.
# Whole blood from human healthy volunteers was collected using a venipuncture connected to a pre-labeled vacuum tube containing sodium citrate. Tubes are gently mixed by inversion 7-8 times; and are then kept at RT until stimulation. 350 μl of RPMI+P/S were added into 1.2 ml-96-well plate. 10 times concentrated of SEQ ID NO: 172 was prepared in RPMI+P/S (50 μl per well). 50 μl was added into 1.2 ml-96 well plates. 50 μl of whole blood was then added in each well where either medium alone or JNK inhibitor has been previously added. Whole blood was incubated at 37° C., 5% CO2 for 60 min. 50 μl/well of ligands diluted in RPMI+P/S was prepared, corresponding to the final dilution 10 times concentrated. After 60 min of incubation, ligand was added; wells were then mixed by pipetting up and down the blood. […] Cytokine were then measured using standard Elisa kits. Results are expressed as pg/ml of supernatant of the measured cytokine.
# [3] = system: primary rat lymph-nodes purified T cells; assay: CD3/CD28-induced IL-2 release in primary rat lymph-nodes purified T cells; format: cell-based; conditions: added 1 h before CD3/CD28 (2 μg/mL); supernatant 24 h
# Method: Control rat were sacrificed and lymph-nodes were harvested. T cells further were purified (using magnetic negative selection) and plated into 96-well plates at 200.000 cells/well. Cells were treated with anti-rat CD3 and anti-rat CD28 antibodies (2 μg/mL). JNK inhibitor with SEQ ID NO: 172 was added to the cultures 1 h before CD3/CD28 treatment and IL-2 release was assessed in supernatant 24 h after treatment.
# Control animal were sacrificed, lymph nodes (LN) were harvested and kept in complete RPMI medium. LN were smashed with complete RPMI on 70 μm filter using a 5 ml piston. A few drops of media were added to keep strainer wet. Cells were centrifuged for 7 min at 450 g and 4° C. Pellet was resuspended in 5 ml fresh medium. Cells were passed again through cell strainer. An aliquot of cells was counted, while cells were centrifuged again 10 min at 1400 rpm and 4° C. Cells were resuspended in MACS buffer (80 μl of MACS buffer per 10^7 cells). 10 μl of anti-rat MHC microbeads were added per 10 million cells, cells were incubated for 15 min at 4°-8° C. Cells were washed with 15 ml MACS buffer and centrifuge for 7 min at 700 g and 4° C. […] Resuspended cells were counted and plated at density of 200000 cells/well in 100 μl of complete medium. […] Cytokines were then measured using standard Elisa kits. Results are expressed as pg/ml of supernatant of the measured cytokine. […]
# [4] = system: established type II collagen arthritis in rats; assay: Chronic established type II collagen arthritis, daily IV 14 days; format: in vivo, rat
# From the text: Rat collagen arthritis is an experimental model of polyarthritis that has been widely used for preclinical testing of numerous anti-arthritic agents that are either under preclinical or clinical investigation or are currently used as therapeutics in this disease. […] Animals were terminated on arthritis day 14.
# [5] = vs disease controls, IV QD d1-14, Dex 0.05 mg/kg, SEQ ID NO: 172 up to 5 mg/kg
smiles,measurement,setting,value
"CC(C)C[C@H](NC(=O)[C@H](CC(N)=O)NC(=O)[C@H](CC(C)C)NC(=O)[C@@H](NC(=O)[C@@H](C)NC(=O)[C@@H]1CCCN1C(=O)[C@H](CCCNC(=N)N)NC(=O)[C@@H](CCCCN)NC(=O)[C@@H]1CCCN1C(=O)[C@H](CCCNC(=N)N)NC(=O)[C@@H](CCCNC(=N)N)NC(=O)[C@H](CCCNC(=N)N)NC(=O)[C@H](CCCNC(=N)N)NC(=O)[C@H](CCC(N)=O)NC(=O)[C@@H](CCCNC(=N)N)NC(=O)[C@H](CCCNC(=N)N)NC(=O)[C@H](CCCCN)NC(=O)[C@H](CCCCN)NC(=O)[C@H](N)CCCNC(=N)N)[C@@H](C)O)C(=O)N[C@H](Cc1ccccc1)C(N)=O [SEQ ID NO: 172, rKKRrQRRrRPkRPaTLNLf] (H-[dR]KKR[dR]QRR[dR]RP[dK]RP[dA]TLNL[dF]-NH2; N-terminus assumed)",LPS-induced IL-6 release,human whole blood [1],did reduce the LPS-induced IL-6 release in a dose-dependent manner
same,PHA-L-induced IL-2 release,human whole blood [2],did reduce the PHA-L-induced IL-2 release in a dose-dependent manner
same,PHA-L-induced TNF-α release,human whole blood [2],did reduce the PHA-L-induced TNF-α release in a dose-dependent manner
same,CD3/CD28-induced IL-2 release,[3],Dose-dependent inhibition
same,"ankle diameter AUC, reduction toward normal",[4]; 1 mg/kg IV QD d1-14,27%
same,inhibition of body weight loss vs disease controls,[4]; 1 mg/kg IV QD d1-14,21%
same,"ankle diameter AUC, reduction toward normal",[4]; 5 mg/kg IV QD d1-14,43%
same,"ankle histopathology, reduction of summed scores",[4]; 5 mg/kg IV QD d1-14,25%
same,"final paw weights, reduction toward normal",[4]; 5 mg/kg IV QD d1-14,26%
same,inhibition of body weight loss vs disease controls,[4]; 5 mg/kg IV QD d1-14,25%
same,"knee histopathology, reduction of summed scores",[4]; 5 mg/kg IV QD d1-14,73%
same,daily ankle diameter measurements,"[4]; 5 mg/kg IV QD, p<0.05 days 4-12",reduced toward normal
same,effect on organ weights,[4]; IV QD d1-14,no adverse effect on organ weights
same,spleen weights relative to body weight,[4]; [5],not significantly affected
same,thymus weights relative to body weight,[4]; [5],not significantly affected
